From article PMC7377239, “Cardiovascular Effects of Polychlorinated Biphenyls and Their Major Metabolites” (Environmental Health Perspectives, 2020)
Counter-ions that a name gives are not always drawn. Like-named read-outs stand apart in the source and are kept apart here.

What was measured:
HUVECs = experiment: High-content imaging cytotoxicity in HUVECs, 24 h; format: cell-based, human; conditions: Homo sapiens, HUVEC, 24 h, HUVEC; for viability at 0.01 µM / activity at 0.01 µM / viability at 0.1 µM / activity at 0.1 µM / viability at 1 µM / activity at 1 µM / viability at 10 µM / activity at 10 µM / viability at 100 µM / activity at 100 µM: 0.00 µM = 100.00; for viability at 0.1 µM / activity at 0.1 µM: 0.10 µM
Summary of the method: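 Confluent HUVEC monolayers, passages 1–5, received test chemicals for 24 h. Cytotoxicity was scored from triple-stain high-content images, with PODs defined by a one-SD deviation from 0.5% DMSO vehicle controls.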

[1] = system: iCell endothelial cells (human iPSC-derived ECs); experiment: High-content imaging cytotoxicity in iCell endothelial cells, 24 h; format: cell-based; conditions: Homo sapiens, Endothelial cell, 24 hr; for viability at 0.1 µM / activity at 0.1 µM: 0.10 µM
Summary of the method: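 Readouts were vehicle-normalised and fitted to a four-parameter logistic model. POD was set at one SD beyond 0.5% DMSO control means, and 100 µM was assigned when no response was seen. Cells were monolayers of iCell endothelial cells imaged after 24 h compound exposure using nuclear, mitochondrial and calcein dyes.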

[2] = HUVECs, 24 hr, read-out: huvec.cyto.24hr
[3] = HUVECs, 24 hr, read-out: huvec.mito.24hr
[4] = HUVECs, 24 hr, read-out: huvec.mitoint.24hr
[5] = HUVECs, 24 hr, read-out: huvec.nma.24hr
[6] = HUVECs, 24 hrs, read-out: huvec.tc.24hrs
[7] = iPSC-EC, 0.00 µM control = 100.00, read-out: endo.cyto.24hr
[8] = iPSC-EC, 0.00 µM control = 100.00, read-out: endo.mito.24hr
[9] = iPSC-EC, 0.00 µM control = 100.00, read-out: endo.mitoint.24hr
[10] = iPSC-EC, 0.00 µM control = 100.00, read-out: endo.nma.24hr
[11] = iPSC-EC, 0.00 µM control = 100.00, read-out: endo.tc.24hrs

Structure (SMILES): O=S(=O)(O)Oc1cccc(-c2ccc(Cl)cc2)c1 [3'-PCB 3 sulfate]
- minimal effective concentration (HUVECs; cyto, 24 hr, read-out: POD huvec.cyto.24hr): 100 µM
- minimal effective concentration (HUVECs; mito, 24 hr, read-out: POD huvec.mito.24hr): 100 µM
- minimal effective concentration (HUVECs; mitoint, 24 hr, read-out: POD huvec.mitoint.24hr): 100 µM
- minimal effective concentration (HUVECs; nma, 24 hr, read-out: POD huvec.nma.24hr): 100 µM
- minimal effective concentration (HUVECs; tc, 24 hr, read-out: POD huvec.tc.24hr): 100 µM
- minimal effective concentration ([1]; endothelial cells (endo), cyto, read-out: POD endo.cyto.24hr): 100 µM
- minimal effective concentration ([1]; endothelial cells (endo), mito, read-out: POD endo.mito.24hr): 100 µM
- minimal effective concentration ([1]; endothelial cells (endo), mitoint, read-out: POD endo.mitoint.24hr): 100 µM
- minimal effective concentration ([1]; endothelial cells (endo), nma, read-out: POD endo.nma.24hr): 100 µM
- minimal effective concentration ([1]; endothelial cells (endo), tc, read-out: POD endo.tc.24hr): 100 µM

Structure (SMILES): O=S(=O)(O)Oc1cccc(-c2ccc(Cl)cc2)c1 [3'-yl PCB 3 sulfate]
- viability at 0.01 µM (HUVECs; [2]): 96%
- activity at 0.01 µM (HUVECs; [3]): 95.2%
- activity at 0.01 µM (HUVECs; [4]): 93.5%
- activity at 0.01 µM (HUVECs; [5]): 100%
- viability at 0.1 µM (HUVECs; [2]): 97%
- activity at 0.1 µM (HUVECs; [3]): 97.2%
- activity at 0.1 µM (HUVECs; [4]): 105%
- activity at 0.1 µM (HUVECs; [5]): 101%
- viability at 1 µM (HUVECs; [2]): 92.7%
- activity at 1 µM (HUVECs; [3]): 92.1%
- activity at 1 µM (HUVECs; [4]): 104%
- activity at 1 µM (HUVECs; [5]): 101%
- viability at 10 µM (HUVECs; [2]): 119%
- activity at 10 µM (HUVECs; [3]): 118%
- activity at 10 µM (HUVECs; [4]): 89.3%
- activity at 10 µM (HUVECs; [5]): 92.6%
- viability at 100 µM (HUVECs; [2]): 88%
- activity at 100 µM (HUVECs; [3]): 87.5%
- activity at 100 µM (HUVECs; [4]): 102%
- activity at 100 µM (HUVECs; [5]): 94.9%
- minimal effective concentration (HUVECs; HUVECs, 24 hr, top concentration 100.00 µM, read-out: huvec.cyto.24hr POD): 100 µM
- minimal effective concentration (HUVECs; HUVECs, 24 hr, top concentration 100.00 µM, read-out: huvec.mito.24hr POD): 100 µM
- minimal effective concentration (HUVECs; HUVECs, 24 hr, top concentration 100.00 µM, read-out: huvec.mitoint.24hr POD): 100 µM
- minimal effective concentration (HUVECs; HUVECs, 24 hr, top concentration 100.00 µM, read-out: huvec.nma.24hr POD): 100 µM
- viability at 0.01 µM (HUVECs; [6]): 96%
- viability at 0.1 µM (HUVECs; [6]): 97.1%
- viability at 1 µM (HUVECs; [6]): 92.7%
- viability at 10 µM (HUVECs; [6]): 119%
- viability at 100 µM (HUVECs; [6]): 88.2%
- minimal effective concentration (HUVECs; HUVECs, 24 hrs, top concentration 100.00 µM, read-out: huvec.tc.24hrs POD): 100 µM
- viability at 0.01 µM [1, 7]: 101%
- activity at 0.01 µM [1, 8]: 101%
- activity at 0.01 µM [1, 9]: 106%
- activity at 0.01 µM [1, 10]: 99.3%
- viability at 0.01 µM [1, 11]: 101%
- viability at 0.1 µM [1, 7]: 93.7%
- activity at 0.1 µM [1, 8]: 93.7%
- activity at 0.1 µM [1, 9]: 105%
- activity at 0.1 µM [1, 10]: 103%
- viability at 0.1 µM [1, 11]: 93.7%
- viability at 1 µM [1, 7]: 97.2%
- activity at 1 µM [1, 8]: 97.2%
- activity at 1 µM [1, 9]: 105%
- activity at 1 µM [1, 10]: 102%
- viability at 1 µM [1, 11]: 97.2%
- viability at 10 µM [1, 7]: 98.7%
- activity at 10 µM [1, 8]: 98.8%
- activity at 10 µM [1, 9]: 111%
- activity at 10 µM [1, 10]: 99.5%
- viability at 10 µM [1, 11]: 98.7%
- viability at 100 µM [1, 7]: 98.5%
- activity at 100 µM [1, 8]: 98.5%
- activity at 100 µM [1, 9]: 103%
- activity at 100 µM [1, 10]: 97.4%
- viability at 100 µM [1, 11]: 98.5%
- minimal effective concentration ([1]; iPSC-EC, top concentration 100.00 µM, read-out: endo.cyto.24hr POD): 100 µM
- minimal effective concentration ([1]; iPSC-EC, top concentration 100.00 µM, read-out: endo.mito.24hr POD): 100 µM
- minimal effective concentration ([1]; iPSC-EC, top concentration 100.00 µM, read-out: endo.mitoint.24hr POD): 100 µM
- minimal effective concentration ([1]; iPSC-EC, top concentration 100.00 µM, read-out: endo.nma.24hr POD): 100 µM
- minimal effective concentration ([1]; iPSC-EC, top concentration 100.00 µM, read-out: endo.tc.24hrs POD): 100 µM
